Assay results as given in US20260248922A1, “TREATMENT OF SIGNS, SYMPTOMS AND/OR COMPLICATIONS OF VIRAL, BACTERIAL, PROTOZOAL, AND/OR FUNGAL INFECTIONS BY HIGH PENETRATION PRODRUGS” (priority 2022, published 2026).

What was measured:
paw edema = assay: Antiinflammatory activity, carrageenan paw edema in rats; assay type: in vivo, Wistar Rats; details: transdermal, 20 mg/kg
LPS-induced fever = assay: Antipyretic activity, fever induced by LPS in rats; assay type: in vivo, Sprague Dawley rats; details: transdermal, 20 mg/kg
Procedure: The body temperature of rats was taken at 0 (2 hours after the challenge), 90 min, 180 min, and 270 min after the administration of the test compounds.

H1N1 virus = H1N1 virus infection mouse model (Example 65); assay type: in vivo, mice; details: transdermal once a day
Procedure: (§1) A total of seventy mice (7 groups, 10/group) were used in this study. At day 0, mice were anesthetized with isoflurane and held in a dorsal recumbent position for administration of 0.1×TCID50/mouse virus (new batch) by internasal instillation, from day 2 post challenge, mice were received a single dose of different concentrations of test article or vehicle control once a day up to 15th day with dose initiation on day 2 post challenge. Group 1 served as an infected control group and was treated with vehicle (35% ethanol). […] Mice were observed following viral challenge for clinical signs of illness including body weights, health score, morbidity and mortality.
Lung lesions and peribronchiolitis of all deceased and surviving animals were characterized (Table 7).

[1] = Skin penetration through rabbit skin in vitro, modified Franz cells; details: receiving fluid pure water
[2] = test system: cecal slurry-induced sepsis; assay: Cecal slurry-induced sepsis mouse model (Example 75); assay type: in vivo, C57/BL6 mice; details: transdermal once a day
Procedure: as §1, with “seventy C57/BL6” for “seventy”, “of 10 mg/mouse cecal slurry” for “of 0.1×TCID50/mouse virus (new batch)”, “by intraperitoneal (IP) injections,” for “by internasal instillation,”, “from hour” for “from day”, “on hour” for “on day”

MRSA = assay: Sepsis model of MRSA infection in mice (Example 79); assay type: in vivo, C57/BL6 mice; details: transdermal once a day
Text: as §1, with “seventy C57/BL6” for “seventy”, “of 2×10^7CFU S. aureus” for “of 0.1×TCID50/mouse virus (new batch)”, “by intraperitoneal (IP) injections,” for “by internasal instillation,”, “from hour” for “from day”, “on hour” for “on day”, “following MRSA” for “following viral”

COVID-19 [3] = assay: COVID-19 infection mouse model (Example 70); assay type: in vivo, hACE2 mice; details: transdermal once a day
Procedure: as §1, with “seventy hACE2” for “seventy”, “3×10 PFU/mouse COVID-19” for “0.1×TCID50/mouse virus (new batch)”, “1” for “2”
Lung lesions and peribronchiolitis of all deceased and surviving animals were characterized (Table 17).

COVID-19 [4] = assay: Phase 2 placebo-controlled study in COVID-19 infection in hospitalized adults (Example 81); assay type: in vivo, human; details: hospitalized COVID-19 patients, 7% solution in 15% ethanol sprayed on skin BID for 28 days
Text: Patients cannot be enrolled or randomized before all eligibility criteria (including test results) are confirmed.
Inclusion criteria: • 1. Admitted to a hospital with pulmonary symptoms of active COVID-19. • 2. Patient (or legally authorized representative) provides informed consent prior to initiation of any study procedures. • 3. Patient (or legally authorized representative) understands and agrees to comply with planned study procedures. • 4. Male or nonpregnant female adult ≥18 years of age at time of enrollment. • 5. Has laboratory confirmed severe acute respiratory syndrome coronavirus 2 (COVID-19) infection as determined by polymerase chain reaction (PCR) or other commercial or public health assay (serology is not acceptable) in any specimen, as documented by either of the following: • a. Laboratory confirmed COVID-19 infection by method as defined above, in sample collected <72 hours prior to randomization; OR • b. […] Has a room-air SpO2<93% and a score of 4 (hospitalized, oxygen by mask or nasal prongs), or room-air SpO2<93% and a score of 5 (hospitalized, noninvasive ventilation or high-flow oxygen), or a score 6 (hospitalized, intubation and mechanical ventilation) in the ordinal scale, which specifically is as follows: • 0) Uninfected, no clinical or virological evidence of infection • 1) Ambulatory (not diagnosed), no limitations of activities. • 2) Ambulatory (not diagnosed), limitation on activities and/or requiring home oxygen • 3) Diagnosed (mild disease), no requiring supplemental oxygen; • 4) Diagnosed (moderate disease), requiring supplemental oxygen (by mask or nasal prongs)—requiring ongoing medical care (COVID-19 related or otherwise); • 5) Diagnosed (severe disease), non-invasive ventilation or high-flow oxygen; • 6) Diagnosed (severe disease), intubation and mechanical ventilation; • 7) Diagnosed (severe disease), ventilation+additional organ support-pressors, RRT, or extracorporeal membrane oxygenation (ECMO); • 8) Death. • 7. […]

[5] = 2 h (before test articles treatment)
[6] = 6 h (4 hours after administration)
[7] = time 0 (before carrageenan challenge)
[8] = T = 0 min (2 hours after LPS challenge)

Cl.O=C(Cc1ccccc1Nc1c(Cl)cccc1Cl)OCC1CCCN1 (stereo not shown) [Example 1]
Paw Volume Mean (paw edema; [5]): 1.719 mL | Paw Volume Mean (paw edema; [6]): 1.314 mL | Paw Volume Mean (paw edema; [7]): 1.245 mL | body temperature (Mean) (LPS-induced fever; [8]): 38.38 | body temperature (Mean) (LPS-induced fever; T = 90 min): 37.10 | body temperature (Mean) (LPS-induced fever; T = 180 min): 36.42 | body temperature (Mean) (LPS-induced fever; T = 270 min): 36.41 | survival (H1N1 virus; group 5, low dose 24.6 mg/kg): 70% | survival (H1N1 virus; group 6, mid dose 49.2 mg/kg): 60% | survival (H1N1 virus; group 7, high dose 98.4 mg/kg): 50% | The cumulative amount of test compounds ([1]; 1 h): 0.48 mg | The cumulative amount of test compounds ([1]; 2 h): 0.99 mg | The cumulative amount of test compounds ([1]; 4 h): 2.03 mg | The cumulative amount of test compounds ([1]; 8 h): 4.09 mg

CCN(CC)CCOC(=O)C(C)c1ccc(CC(C)C)cc1.Cl (stereo not shown) [Example 2]
Paw Volume Mean (paw edema; [5]): 1.697 mL | Paw Volume Mean (paw edema; [6]): 1.402 mL | Paw Volume Mean (paw edema; [7]): 1.225 mL | body temperature (Mean) (LPS-induced fever; [8]): 38.31 | body temperature (Mean) (LPS-induced fever; T = 90 min): 37.57 | body temperature (Mean) (LPS-induced fever; T = 180 min): 36.86 | body temperature (Mean) (LPS-induced fever; T = 270 min): 36.63 | survival ([2]; group 5, low dose 24.6 mg/kg): 50% | survival ([2]; group 6, mid dose 49.2 mg/kg): 50% | survival ([2]; group 7, high dose 98.4 mg/kg): 40% | survival (MRSA; group 5, low dose 24.6 mg/kg): 40% | survival (MRSA; group 6, mid dose 49.2 mg/kg): 60% | survival (MRSA; group 7, high dose 98.4 mg/kg): 50% | survival (COVID-19 [3]; group 5, low dose 24.6 mg/kg): 60% | survival (COVID-19 [3]; group 6, mid dose 49.2 mg/kg): 50% | survival (COVID-19 [3]; group 7, high dose 98.4 mg/kg): 50%

CCN(CC)CCOC(=O)c1ccccc1OC(C)=O.Cl [Example 4]
hospital stay time, average (COVID-19 [4]): about 4 days | time to an improvement of 2 categories using 9-point ordinal scale, average (COVID-19 [4]): about 3 days | time to maintain peripheral capillary oxygen saturation (SpO2) of >93% without oxygen support, average (COVID-19 [4]): about 3 days

COc1ccc2cc(C(C)C(=O)OCC3CCCN3)ccc2c1.Cl (stereo not shown) [Example 16, (pyrrolidin-2-yl)methyl 2-(6-methoxy-2-naphthyl) propanoate hydrochloride]
body temperature (Mean) (LPS-induced fever; [8]): 38.30 | body temperature (Mean) (LPS-induced fever; T = 90 min): 37.38 | body temperature (Mean) (LPS-induced fever; T = 180 min): 36.79 | body temperature (Mean) (LPS-induced fever; T = 270 min): 36.53 | survival (H1N1 virus; group 2, low dose 25.1 mg/kg): 20% | survival (H1N1 virus; group 3, mid dose 50.2 mg/kg): 20% | survival (H1N1 virus; group 4, high dose 100.3 mg/kg): 40% | survival (MRSA; group 2, low dose 25.1 mg/kg): 20% | survival (MRSA; group 3, mid dose 50.2 mg/kg): 30% | survival (MRSA; group 4, high dose 100.3 mg/kg): 40% | survival (COVID-19 [3]; group 2, low dose 25.1 mg/kg): 30% | survival (COVID-19 [3]; group 3, mid dose 50.2 mg/kg): 50% | survival (COVID-19 [3]; group 4, high dose 100.3 mg/kg): 50%
